The record followed here is patent US8445501B2, “Substituted 7-carboxamido-pyrrolo[3,2-d]pyrimidines” (Takeda GmbH, priority 2008, dated 2013).

The target of the test is T1, human PDE5 (Homo sapiens, UniProt O76074).
T1 construct: from tissue; host or cells: platelets from fresh blood of human donors (lysate, 10,000 g supernatant)
The test can be described thus: Inhibition of the type 5 phosphodiesterase (PDE5) activity, modified SPA test with platelet lysate. The settings on record: PDE5 from human platelet lysate, 0.5 μM cGMP. The format is biochemical. The gist of the method:
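SPA-based cGMP hydrolysis, [3H]cGMP tracer in 0.5 μM cGMP, by sonicated human platelet lysate; motapizone (1 μM) and a PDE2 inhibitor (10 nM) block other PDEs. Reaction 15 min at 37 °C after 5 min preincubation, quenched with beads containing IBMX. IC50 from concentration-effect curves.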
In turn, `COc1ccc(-c2ncnc3c(C(=O)N[C@H]4CC[C@@H](NC(=O)C5CC5)CC4)c[nH]c23)c(OCC2CC2)c1` [Example 56, cis-4-(2-Cyclopropylmethoxy-4-methoxy-phenyl)-5H-pyrrolo[3,2-d]pyrimidine-7-carboxylic acid [4-(cyclopropanecarbonyl-amino)cyclohexyl]-amide] gave an IC50 of 0.282 nM. This counts as sub-nanomolar.

Turning to `CCOc1ccc2c(c1-c1ncnc3c(C(=O)N[C@@H]4CCN(C(=O)CC)C4)c[nH]c13)OCO2` [Example 136, 4-(5-Ethoxy-benzo[1,3]dioxol-4-yl)-5H-pyrrolo[3,2-d]pyrimidine-7-carboxylic acid ((R)-1-propionyl-pyrrolidin-3-yl)-amide], the concentration for half-maximal inhibition (IC50) is 3.72 nM.

For the compound `CC(=O)N1CC[C@@H](NC(=O)c2c[nH]c3c(-c4c(OCC5CC5)ccc5c4OCO5)ncnc23)C1` [Example 15, 4-(5-Cyclopropylmethoxy-benzo[1,3]dioxol-4-yl)-5H-pyrrolo[3,2-d]pyrimidine-7-carboxylic acid ((R)-1-acetyl-pyrrolidin-3-yl)-amide], inhibition was half-maximal at 1 nM (IC50).

On to `COc1cc(OCC2CC2)c(-c2ncnc3c(C(=O)N[C@H]4CCCN(C(=O)[C@H](C)O)C4)c[nH]c23)cc1F` [Example 239, 4-(2-cyclopropylmethoxy-5-fluoro-4-methoxy-phenyl)-5H-pyrrolo[3,2-d]pyrimidine-7-carboxylic acid [(S)-1-((S)-2-hydroxy-propanoyl)piperidin-3-yl]-amide], for which the IC50 is 2.51 nM.

As to `CC(=O)N1CCC(NC(=O)c2c[nH]c3c(-c4ccc(F)cc4OCC4CC4)ncnc23)CC1` [Example 81, 4-(2-Cyclopropylmethoxy-4-fluoro-phenyl)-5H-pyrrolo[3,2-d]pyrimidine-7-carboxylic acid (1-acetyl-piperidin-4-yl)-amide], the IC50 is 1.48 nM.

In the case of `O=C(CO)N[C@H]1CC[C@H](NC(=O)c2c[nH]c3c(-c4c(OCC5CC5)ccc5c4OCO5)ncnc23)CC1` [Example 172], inhibition was half-maximal at 0.112 nM (IC50).

For the compound `COCCOc1cc(OC)ccc1-c1ncnc2c(C(=O)N[C@H]3CC[C@H](NC(=O)C4CC4)CC3)c[nH]c12` [Example 156, trans-4-[4-Methoxy-2-(2-methoxy-ethoxy)-phenyl]-5H-pyrrolo[3,2-d]pyrimidine-7-carboxylic acid [4-(cyclopropanecarbonyl-amino)cyclohexyl]-amide], half-maximal inhibition (IC50) was put at 6.61 nM.

Consider `CCC(=O)N1CCC(NC(=O)c2c[nH]c3c(-c4cc(F)c(O)cc4OCC4CC4)ncnc23)CC1` [Example 278, 4-(2-Cyclopropylmethoxy-5-fluoro-4-hydroxy-phenyl)-5H-pyrrolo[3,2-d]pyrimidine-7-carboxylic acid (1-propionyl-piperidin-4-yl)-amide], for which the IC50 is 57.5 nM.

`CCCOc1ccc2c(c1-c1ncnc3c(C(=O)N[C@@H]4CCN(C(=O)COC)C4)c[nH]c13)OCO2` [Example 143, 4-(5-Propoxy-benzo[1,3]dioxol-4-yl)-5H-pyrrolo[3,2-d]pyrimidine-7-carboxylic acid [(R)-1-(2-methoxy-acetyl)-pyrrolidin-3-yl]amide] had an IC50 of 1.51 nM. This IC50 is about 38-fold lower than that of the compound before.

`COc1ccc(-c2ncnc3c(C(=O)N[C@H]4CC[C@H](NC(C)=O)CC4)c[nH]c23)c(OCC2CC2)c1` [Example 51, trans-4-(2-Cyclopropylmethoxy-4-methoxy-phenyl)-5H-pyrrolo[3,2-d]pyrimidine-7-carboxylic acid (4-acetylamino-cyclohexyl)-amide] had an IC50 of 0.49 nM. This IC50 lies about 3.1-fold lower than the previous one.

The compound `COCCOc1ccc2c(c1-c1ncnc3c(C(=O)N[C@H]4CC[C@H](NC(=O)CO)CC4)c[nH]c13)OCO2` [Example 260, trans-4-[5-(2-Methoxy-ethoxy)-benzo[1,3]dioxol-4-yl]-5H-pyrrolo[3,2-d]pyrimidine-7-carboxylic acid [4-(2-hydroxy-acetylamino)-cyclohexyl]-amide] showed an IC50 of 4.79 nM.

`C[C@H](O)C(=O)N1CC[C@@H](NC(=O)c2c[nH]c3c(-c4c(OCC5CC5)ccc5c4OCO5)ncnc23)C1` [Example 181, 4-(5-Cyclopropylmethoxy-benzo[1,3]dioxol-4-yl)-5H-pyrrolo[3,2-d]pyrimidine-7-carboxylic acid [(R)-1-((S)-2-hydroxy-propanoyl)-pyrrolidin-3-yl]amide] gave an IC50 of 0.589 nM.

In turn, `O=C(CO)N[C@H]1CC[C@H](NC(=O)c2c[nH]c3c(-c4cc(F)ccc4OCC4CC4)ncnc23)CC1` [Example 222, trans-4-(2-Cyclopropylmethoxy-5-fluoro-phenyl)-5H-pyrrolo[3,2-d]pyrimidine-7-carboxylic acid [4-(2-hydroxy-acetylamino)-cyclohexyl]-amide] showed an IC50 of 1.91 nM.

`COc1ccc(-c2ncnc3c(C(=O)N[C@H]4CC[C@@H](NC(C)=O)CC4)c[nH]c23)c(OCC2CC2)c1` [Example 55, cis-4-(2-Cyclopropylmethoxy-4-methoxy-phenyl)-5H-pyrrolo[3,2-d]pyrimidine-7-carboxylic acid (4-acetylamino-cyclohexyl)-amide] had an IC50 of 0.372 nM.

`CC(=O)N[C@H]1CC[C@@H](NC(=O)c2c[nH]c3c(-c4ccc(F)cc4OCC4CC4)ncnc23)CC1` [Example 75, cis-4-(2-Cyclopropylmethoxy-4-fluoro-phenyl)-5H-pyrrolo[3,2-d]pyrimidine-7-carboxylic acid (4-acetylamino-cyclohexyl)-amide] showed an IC50 of 1.58 nM.

`COc1ccc(-c2ncnc3c(C(=O)NC4CCN(C(C)=O)CC4)c[nH]c23)c(OCC2CC2)c1` [Example 59, 4-(2-Cyclopropylmethoxy-4-methoxy-phenyl)-5H-pyrrolo[3,2-d]pyrimidine-7-carboxylic acid (1-acetyl-piperidin-4-yl)-amide] had an IC50 of 0.741 nM. Compared with the last compound, the IC50 is about 2.1-fold lower.

In turn, `COc1cc(OCC2CC2)c(-c2ncnc3c(C(=O)NC4CCN(C(=O)C5(O)CC5)CC4)c[nH]c23)cc1F` [Example 238, 4-(2-Cyclopropylmethoxy-5-fluoro-4-methoxy-phenyl)-5H-pyrrolo[3,2-d]pyrimidine-7-carboxylic acid {1-[1-(1-hydroxy-cyclopropyl)methanoyl]-piperidin-4-yl}-amide] had a half-maximal inhibitory concentration (IC50) of 0.316 nM.

`CC(=O)N1CC[C@H](NC(=O)c2c[nH]c3c(-c4c(OCC5CC5)ccc5c4OCO5)ncnc23)C1` [Example 19, 4-(5-Cyclopropylmethoxy-benzo[1,3]dioxol-4-yl)-5H-pyrrolo[3,2-d]pyrimidine-7-carboxylic acid ((S)-1-acetyl-pyrrolidin-3-yl)-amide] had an IC50 of 2.45 nM.

The compound `O=C(NCC1CCN(C(=O)C2(O)CC2)CC1)c1c[nH]c2c(-c3c(OCC4CC4)ccc4c3OCO4)ncnc12` [Example 188, 4-(5-Cyclopropylmethoxy-benzo[1,3]dioxol-4-yl)-5H-pyrrolo[3,2-d]pyrimidine-7-carboxylic acid {1-[1-(1-hydroxy-cyclopropyl)-methanoyl]-piperidin-4-ylmethyl}-amide] gave a half-maximal inhibitory concentration (IC50) of 0.513 nM.

`COc1ccc(-c2ncnc3c(C(=O)N[C@H]4CC[C@@H](NC(=O)C5(O)CC5)CC4)c[nH]c23)c(OCC2CC2)c1` [Example 204, cis-4-(2-Cyclopropylmethoxy-4-methoxy-phenyl)-5H-pyrrolo[3,2-d]pyrimidine-7-carboxylic acid {-[(1-hydroxy-cyclopropanecarbonyl)-amino]-cyclohexyl}-amide] showed a 50% inhibitory concentration (IC50) of 0.257 nM.
